Results on one compound are retold here after patent publication US7485642B2, “Method for treating septic shock” (Orion Corporation, priority 2000, dated 2009).

This experiment relates to porcine model of endotoxin shock. Briefly: porcine model of endotoxin shock. The format is in vivo, landrace pigs. As for the experimental part:
20 kg landrace pigs were anesthetized and catheterized. After baseline measurements 8 pigs received 200 μg/kg levosimendan as a 10 minute bolus followed by an infusion of 200 μg/kg/hour. 9 animals served as controls.
In the second phase of the experiment the animals were given an infusion of endotoxin (from E. Coli bacteria) 30 minutes after the start of the bolus dose of levosimendan. The endotoxin infusion was maintained for 3 hours and the levosimendan infusion was maintained throughout the experiment until 5 hours after onset of endoxemia. Comparison between the two groups was made with ANOVA.
The changes in the cardiac index, splanchnic (portal) blood flow index, portal venous blood lactate and pulmonary vascular resistance are shown in FIGS. 1-4. In the Figures, (−0.5 h) means the start of levosimendan bolus and (0 h) the start of endotoxin infusion.

Where [1] appears, read: porcine model of endotoxin shock, 200 μg/kg 10 minute bolus followed by infusion of 200 μg/kg/hour, E. Coli endotoxin infusion 3 hours.

For `CC1CC(=O)NN=C1c1ccc(NN=C(C#N)C#N)cc1` (single isomer, unassigned; (-)) [levosimendan, (−)-[[4-(1,4,5,6-tetrahydro-4-methyl-6-oxo-3-pyridazinyl)phenyl]hydrazono]propanedinitrile], the survival entry (8 levosimendan treated pigs, until 5 hours after onset of endotoxemia) is “All levosimendan treated animals survived”. Further, under setting [1], the “endotoxin-induced decreases in cardiac output” value was “counteracts” and the endotoxin-induced splanchnic hyperperfusion result was “counteracts endotoxin-induced splanchnic hyperperfusion”. Besides, the “endotoxin-induced circulatory disorders (cardiac index, portal blood flow index, portal venous blood lactate, pulmonary vascular resistance; FIGS. 1-4)” value (vs control, ANOVA, until 5 hours after onset of endotoxemia) is reported as “can significantly counteract endotoxin-induced circulatory disorders”.
